Experimental data taken from patent publication US6737383B1, “Herbicidal oxadiazolidines” (priority 1999, dated 2004).

Columns and labels:
lambsquarters = assay: Test E lambsquarters; assay type: in vivo, Chenopodium album; conditions: Preemergence
wild buckwheat = assay: Test E wild buckwheat; assay type: in vivo, Polygonum convolvulus; conditions: Postemergence; for Plant response rating, Wild buckwheat: 0 to 100 scale
Method in brief: (§1)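 Greenhouse-grown plants are treated (postemergence: 1- to 4-leaf stage, sandy loam/potting mix 60:40), then evaluated visually versus untreated controls some 21 to 28 days later.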

common groundsel = assay: Test D common groundsel; assay type: in vivo, Senecio vulgaris; conditions: Postemergence, 0 to 100 scale
jointed goatgrass = assay: Test E jointed goatgrass; assay type: in vivo, Aegilops cylindrica; conditions: Preemergence
green foxtail = assay: Test E green foxtail; assay type: in vivo, Setaria viridis; conditions: Postemergence; for Plant response rating, Green foxtail: 0 to 100 scale
Protocol: (§2) Compounds evaluated in this test were formulated in a non-phytotoxic solvent mixture which included a surfactant and applied to plants that were in the 1- to 4-leaf stage (postemergence application). A mixture of sandy loam soil and greenhouse potting mix in a 60:40 ratio was used for the postemergence test.
(§3) Plantings of these crops and weed species were adjusted to produce plants of appropriate size for the postemergence test. All plant species were grown using normal greenhouse practices. Crop and weed species include annual bluegrass (Poa annua), blackgrass (Alopecurus myosuroides), black nightshade (Solanum nigra), chickweed (Stellaria media), common poppy (Papaver rhoeas), deadnettle (Lamium amplexicaule), downy brome (Bromus tectorum), field violet (Viola arvensis), galium (Galium aparine), green foxtail (Setaria viridis), Italian ryegrass (Lolium multiflorum), jointed goatgrass (Aegilops cylindrica), kochia (Kochia scoparia), lambsquarters (Chenopodium album), littleseed canarygrass (Phalaris minor), rape (Brassica napus), redroot pigweed (Amaranthus retroflexus), Russian thistle (Salsola kali), scentless chamomile (Matricaria inodora), spring barley (Hordeum vulgare), sugar beet (Beta vulgaris), sunflower (Helianthus annuus), ivyleaf speedwell (Veronica hederaefolia), spring wheat (Triticum aestivum), winter wheat (Triticum aestivum), wild buckwheat (Polygonum convolvulus), wild mustard (Sinapis arvensis), wild oat (Avena fatua), windgrass (Apera spica-venti) and winter barley (Hordeum vulgare).
(§4) Treated plants and untreated controls were maintained in a greenhouse for approximately 21 to 28 days, after which all treated plants were compared to untreated controls and visually evaluated. […] A dash response (-) means no test result.

littleseed canarygrass [1] = assay: Test E littleseed canarygrass; assay type: in vivo, Phalaris minor; conditions: Preemergence
dallisgrass = assay: Test D dallisgrass; assay type: in vivo, Paspalum dilatatum; conditions: Postemergence, 0 to 100 scale
littleseed canarygrass [2] = assay: Test E littleseed canarygrass; assay type: in vivo, Phalaris minor; conditions: Postemergence; for Plant response rating, LS canarygrass: 0 to 100 scale
Protocol: as §2, §3, §4

scentless chamomile [3] = assay: Test E scentless chamomile; assay type: in vivo, Matricaria inodora; conditions: Postemergence; for Plant response rating, Scentless chamo: 0 to 100 scale
Protocol: as §2, §3, §4

guineagrass = assay: Test D guineagrass; assay type: in vivo, Panicum maximum; conditions: Postemergence, 0 to 100 scale
spring wheat = assay: Test E spring wheat; assay type: in vivo, Triticum aestivum; conditions: Preemergence
scentless chamomile [4] = assay: Test E scentless chamomile; assay type: in vivo, Matricaria inodora; conditions: Preemergence
itchgrass = assay: Test D itchgrass; assay type: in vivo, Rottboellia exaltata; conditions: Postemergence, 0 to 100 scale
sugar beet = assay: Test E sugar beet; assay type: in vivo, Beta vulgaris; conditions: Preemergence
goosegrass = assay: Test D goosegrass; assay type: in vivo, Eleusine indica; conditions: Postemergence, 0 to 100 scale
tall mallow = assay: Test D tall mallow; assay type: in vivo, Malva sylvestris; conditions: Postemergence, 0 to 100 scale; for Tall Mallow plant response rating: 0 no injury, 100 complete control
black nightshade = assay: Test E black nightshade; assay type: in vivo, Solanum nigra; conditions: Postemergence; for Plant response rating, Blk nightshade: 0 to 100 scale
Method in brief: as §1

Johnson grass = assay: Test D Johnson grass; assay type: in vivo, Sorghum halepense; conditions: Postemergence, 0 to 100 scale
surinam grass = assay: Test D surinam grass; assay type: in vivo, Brachiaria decumbens; conditions: Postemergence, 0 to 100 scale; for Surinam grass plant response rating: 0 no injury, 100 complete control
redroot pigweed = assay: Test E redroot pigweed; assay type: in vivo, Amaranthus retroflexus; conditions: Postemergence; for Plant response rating, Redroot pigweed: 0 to 100 scale
Protocol: as §2, §3, §4

blackgrass = assay: Test E blackgrass; assay type: in vivo, Alopecurus myosuroides; conditions: Postemergence; for Plant response rating, Blackgrass: 0 to 100 scale
Method in brief: as §1

spring barley = assay: Test E spring barley; assay type: in vivo, Hordeum vulgare; conditions: Preemergence
field violet = assay: Test E field violet; assay type: in vivo, Viola arvensis; conditions: Preemergence
[5] = Rate 125 g/ha, 0 to 100 scale (0 no effect, 100 complete control)
[6] = Rate 500 g/ha, 0 to 100 scale where 0 is no effect and 100 is complete control
[7] = Rate 500 g/ha, 0 no effect, 100 complete control
[8] = Rate 250 g/ha, 0 to 100 scale where 0 is no effect and 100 is complete control
[9] = Rate 64 g/ha, 0 no injury, 100 complete control
[10] = Rate 125 g/ha, 0 no injury, 100 complete control

C=CCn1c(=O)on(C(=O)N(c2ccc(F)cc2)C(C)C)c1=O [Compound 146]
Plant response rating Lambsquarters (lambsquarters; [5]): 100
Lambsquarters plant response rating (0 to 100 scale) (lambsquarters; Rate 250 g/ha): 100
Plant response rating Lambsquarters (lambsquarters; [6]): 100
Plant response rating, Wild buckwheat (wild buckwheat; Rate 62 g/ha): 20
Plant response rating, Wild buckwheat (wild buckwheat; Rate 125 g/ha): 0
Plant response rating, Wild buckwheat (wild buckwheat; [7]): 50
Wild buckwheat plant response rating (wild buckwheat; [8]): 10
Plant response rating, Com. groundsel (common groundsel; [9]): 0
Plant response rating, Com. groundsel (common groundsel; [10]): 0
Plant response rating, Com. groundsel (common groundsel; Rate 250 g/ha): 0
Plant response rating, Com. groundsel (common groundsel; Rate 500 g/ha): 0
Plant response rating, Jointed goatgra (jointed goatgrass; [5]): 45
Jointed goatgra plant response rating (0 to 100 scale) (jointed goatgrass; Rate 250 g/ha): 50
Plant response rating, Jointed goatgra (jointed goatgrass; [6]): 50
Plant response rating, Green foxtail (green foxtail; Rate 62 g/ha): 70
Plant response rating, Green foxtail (green foxtail; Rate 125 g/ha): 20
Plant response rating, Green foxtail (green foxtail; [7]): 80
Green foxtail plant response rating (green foxtail; [8]): 70
Plant response rating, LS canarygrass (littleseed canarygrass [1]; [5]): 40
LS canarygrass plant response rating (0 to 100 scale) (littleseed canarygrass [1]; Rate 250 g/ha): 75
Plant response rating, LS canarygrass (littleseed canarygrass [1]; [6]): 85
Plant response rating, Dallisgrass (dallisgrass; [10]): 30
Plant response rating, Dallisgrass (dallisgrass; Rate 250 g/ha): 60
Plant response rating, Dallisgrass (dallisgrass; Rate 500 g/ha): 80
Plant response rating, LS canarygrass (littleseed canarygrass [2]; Rate 62 g/ha): 30
Plant response rating, LS canarygrass (littleseed canarygrass [2]; Rate 125 g/ha): 30
Plant response rating, LS canarygrass (littleseed canarygrass [2]; [7]): 65
LS canarygrass plant response rating (littleseed canarygrass [2]; [8]): 30
Plant response rating, Scentless chamo (scentless chamomile [3]; Rate 62 g/ha): 20
Plant response rating, Scentless chamo (scentless chamomile [3]; Rate 125 g/ha): 10
Plant response rating, Scentless chamo (scentless chamomile [3]; [7]): 10
Scentless chamo plant response rating (scentless chamomile [3]; [8]): 10
Plant response rating, Guineagrass (guineagrass; [9]): 10
Plant response rating, Guineagrass (guineagrass; [10]): 10
Plant response rating, Guineagrass (guineagrass; Rate 250 g/ha): 35
Plant response rating, Guineagrass (guineagrass; Rate 500 g/ha): 60
Plant response rating, Spring Wheat (spring wheat; [5]): 50
Spring Wheat plant response rating (0 to 100 scale) (spring wheat; Rate 250 g/ha): 80
Plant response rating, Spring Wheat (spring wheat; [6]): 100
Plant response rating, Scentless chamo (scentless chamomile [4]; [5]): 15
Scentless chamo plant response rating (0 to 100 scale) (scentless chamomile [4]; Rate 250 g/ha): 100
Plant response rating, Scentless chamo (scentless chamomile [4]; [6]): 80
Plant response rating, Itchgrass (itchgrass; [9]): 30
Plant response rating, Itchgrass (itchgrass; [10]): 30
Plant response rating, Itchgrass (itchgrass; Rate 250 g/ha): 50
Plant response rating, Itchgrass (itchgrass; Rate 500 g/ha): 65
Plant response rating, Sugar beet (sugar beet; [5]): 60
Sugar beet plant response rating (0 to 100 scale) (sugar beet; Rate 250 g/ha): 60
Plant response rating, Sugar beet (sugar beet; [6]): 80
Plant response rating, Goosegrass (goosegrass; [9]): 0
Plant response rating, Goosegrass (goosegrass; [10]): 35
Plant response rating, Goosegrass (goosegrass; Rate 250 g/ha): 30
Plant response rating, Goosegrass (goosegrass; Rate 500 g/ha): 80
Tall Mallow plant response rating (tall mallow; Rate 64 g/ha): 0
Tall Mallow plant response rating (tall mallow; Rate 125 g/ha): 0
Plant response rating, Tall Mallow (tall mallow; Rate 250 g/ha): 0
Plant response rating, Tall Mallow (tall mallow; Rate 500 g/ha): 50
Plant response rating, Blk nightshade (black nightshade; Rate 62 g/ha): 50
Plant response rating, Blk nightshade (black nightshade; Rate 125 g/ha): 50
Plant response rating, Blk nightshade (black nightshade; [7]): 70
Blk nightshade plant response rating (black nightshade; [8]): 40
Plant response rating Johnsongrass (Johnson grass; [9]): 20
Plant response rating Johnsongrass (Johnson grass; [10]): 35
Plant response rating Johnsongrass (Johnson grass; Rate 250 g/ha): 50
Plant response rating Johnsongrass (Johnson grass; Rate 500 g/ha): 65
Plant response rating Surinam grass (surinam grass; Rate 500 g/ha): 80
Plant response rating, Redroot pigweed (redroot pigweed; Rate 62 g/ha): 30
Plant response rating, Redroot pigweed (redroot pigweed; Rate 125 g/ha): 20
Plant response rating, Redroot pigweed (redroot pigweed; [7]): 50
Redroot pigweed plant response rating (redroot pigweed; [8]): 10
Plant response rating, Blackgrass (blackgrass; Rate 62 g/ha): 70
Plant response rating, Blackgrass (blackgrass; Rate 125 g/ha): 25
Plant response rating, Blackgrass (blackgrass; [7]): 40
Blackgrass plant response rating (blackgrass; [8]): 15
Plant response rating, Spring Barley (spring barley; [5]): 20
Spring Barley plant response rating (0 to 100 scale) (spring barley; Rate 250 g/ha): 10
Plant response rating, Spring Barley (spring barley; [6]): 90
Plant response rating, Field violet (field violet; [5]): 10
Field violet plant response rating (0 to 100 scale) (field violet; Rate 250 g/ha): 30
Plant response rating, Field violet (field violet; [6]): 50

CC(C)N(C(=O)n1oc(=O)n(C2CC2)c1=O)c1ccc(F)cc1F [Compound 299]
Plant response rating, Com. groundsel (common groundsel; [9]): 100
Plant response rating, Com. groundsel (common groundsel; [10]): 100
Plant response rating, Com. groundsel (common groundsel; Rate 250 g/ha): 100
Plant response rating, Com. groundsel (common groundsel; Rate 500 g/ha): 100
Plant response rating, Dallisgrass (dallisgrass; [9]): 100
Plant response rating, Dallisgrass (dallisgrass; [10]): 100
Plant response rating, Dallisgrass (dallisgrass; Rate 250 g/ha): 100
Plant response rating, Dallisgrass (dallisgrass; Rate 500 g/ha): 100
Guineagrass plant response rating (guineagrass; [9]): 20
Plant response rating, Guineagrass (guineagrass; [9]): 0
Plant response rating, Guineagrass (guineagrass; [10]): 80
Plant response rating, Guineagrass (guineagrass; Rate 250 g/ha): 100
Plant response rating, Guineagrass (guineagrass; Rate 500 g/ha): 100
Plant response rating, Itchgrass (itchgrass; [9]): 0
Plant response rating, Itchgrass (itchgrass; [10]): 10
Plant response rating, Itchgrass (itchgrass; Rate 250 g/ha): 50
Plant response rating, Itchgrass (itchgrass; Rate 500 g/ha): 100
Plant response rating, Goosegrass (goosegrass; [9]): 90
Plant response rating, Goosegrass (goosegrass; [10]): 100
Plant response rating, Goosegrass (goosegrass; Rate 250 g/ha): 100
Plant response rating, Goosegrass (goosegrass; Rate 500 g/ha): 100
Tall Mallow plant response rating (tall mallow; Rate 64 g/ha): 30
Tall Mallow plant response rating (tall mallow; Rate 125 g/ha): 90
Plant response rating, Tall Mallow (tall mallow; Rate 250 g/ha): 70
Plant response rating, Tall Mallow (tall mallow; Rate 500 g/ha): 100
Plant response rating Johnsongrass (Johnson grass; [9]): 0
Plant response rating Johnsongrass (Johnson grass; [10]): 60
Plant response rating Johnsongrass (Johnson grass; Rate 250 g/ha): 100
Plant response rating Johnsongrass (Johnson grass; Rate 500 g/ha): 100
Surinam grass plant response rating (surinam grass; Rate 64 g/ha): 50
Surinam grass plant response rating (surinam grass; Rate 125 g/ha): 100
Plant response rating Surinam grass (surinam grass; Rate 250 g/ha): 100
Plant response rating Surinam grass (surinam grass; Rate 500 g/ha): 100
